From article PMC6364417, “Kinase inhibitor library screening identifies synergistic drug combinations effective in sensitive and resistant melanoma cells” (Journal of Experimental & Clinical Cancer Research : CR, 2019)

Legend:
Experiment in all cases: Kinase inhibitor library screening, PrestoBlue cell viability, 1 or 10 μM, 72 h
[1] = tested on: 501Mel-GP cells (Dabrafenib-resistant); details: 72 h
[2] = tested on: IGR37-GP cells (Dabrafenib-resistant)
IGR37 cells (parental) = tested on: IGR37 cells (parental)
[3] = tested on: 501Mel-XP cells (Vemurafenib-resistant); details: 72 h
[4] = tested on: IGR37-XP cells (Vemurafenib-resistant)
501Mel cells (parental) = details: 72 h
In short: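 Cells are treated with each inhibitor at 1 or 10 μM, incubated 72 h, then PrestoBlue reagent is added and the plate is read. Data are normalised to untreated cells.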

[5] = tested on: A375-GP cells (Dabrafenib-resistant)
A375 cells (parental) = tested on: A375 cells (parental)
[6] = tested on: A375-XP cells (Vemurafenib-resistant)
[7] = IGR37 Parental, 1μΜ, 72 h, in %
[8] = IGR37 Parental, 10μΜ, 72 h, in %

Row | SMILES | Cell viability in kinase inhibitor library screening, 501Mel GP, 1μΜ ([1]; 501Mel GP, 1μΜ, in %) | Cell viability in kinase inhibitor library screening, 501Mel GP, 10μΜ ([1]; 501Mel GP, 10μΜ, in %) | Cell viability in kinase inhibitor library screening, IGR37 GP, 10μΜ ([2]; IGR37 GP, 10μΜ, 72 h) | Cell viability in kinase inhibitor library screening, IGR37 GP, 1μΜ ([2]; IGR37 GP, 1μΜ, 72 h, in %) | Cell viability in kinase inhibitor library screening, IGR37 Parental, 1μΜ (IGR37 cells (parental); [7]) | Cell viability in kinase inhibitor library screening, IGR37 Parental, 10μΜ (IGR37 cells (parental); [8]) | Cell viability in kinase inhibitor library screening, 501Mel XP, 1μΜ ([3]; 501Mel XP, 1μΜ, in %) | Cell viability in kinase inhibitor library screening, 501Mel XP, 10μΜ ([3]; 501Mel XP, 10μΜ, in %) | Cell viability in kinase inhibitor library screening, IGR37 XP, 10μΜ ([4]; IGR37 XP, 10μΜ, 72 h) | Cell viability in kinase inhibitor library screening, IGR37 XP, 1μΜ ([4]; IGR37 XP, 1μΜ, 72 h, in %) | Cell viability in kinase inhibitor library screening, 501Mel Parental, 1μΜ (501Mel cells (parental); 501Mel Parental, 1μΜ, in %) | Cell viability in kinase inhibitor library screening, 501Mel Parental, 10μΜ (501Mel cells (parental); 501Mel Parental, 10μΜ, in %) | Cell viability in kinase inhibitor library screening, A375 GP, 1μΜ ([5]; A375 GP, 1μΜ, 72 h) | Cell viability in kinase inhibitor library screening, A375 GP, 10μΜ ([5]; A375 GP, 10μΜ, 72 h) | Cell viability in kinase inhibitor library screening, A375 Parental, 10μΜ (A375 cells (parental); A375 Parental, 10μΜ, 72 h) | Cell viability in kinase inhibitor library screening, A375 Parental, 1μΜ (A375 cells (parental); A375 Parental, 1μΜ, 72 h) | Cell viability in kinase inhibitor library screening, A375 XP, 1μΜ ([6]; A375 XP, 1μΜ, 72 h) | Cell viability in kinase inhibitor library screening, A375 XP, 10μΜ ([6]; A375 XP, 10μΜ, 72 h) | further results
1 | c1cncc(CN2CCC(n3ncc4c(N5CCOCC5)nc(-c5ccc6[nH]ccc6c5)nc43)CC2)c1 [WAY-600] | 72.3 | 4.3 | 18.4% | 95.3 | 93.5 | 26.3 | 56.9 | 1.0 | 4.5% | 84.1 | 86.8 | 3.0 | 82.4 | 21.9 | 22.3 | 84.4 | 76.7 | 16.9 | 
2 | COc1cc2ncnc(Nc3ccc(O)c(Br)c3)c2cc1OC [WHI-P154] |  |  |  |  |  |  |  |  |  |  |  |  |  |  |  |  |  |  | cell viability, 501Mel GP, 1μΜ ([1]; 501Mel GP, 1μΜ, in %): 99.5; cell viability, 501Mel GP, 10μΜ ([1]; 501Mel GP, 10μΜ, in %): 77.2; cell viability, IGR37 GP, 10μΜ ([2]; IGR37 GP, 10μΜ, 72 h): 72.3%; cell viability, IGR37 GP, 1μΜ ([2]; IGR37 GP, 1μΜ, 72 h, in %): 94.4; cell viability, IGR37 Parental, 1μΜ (IGR37 cells (parental); [7]): 97.1; cell viability, IGR37 Parental, 10μΜ (IGR37 cells (parental); [8]): 93.0; cell viability, 501Mel XP, 1μΜ ([3]; 501Mel XP, 1μΜ, in %): 89.8; cell viability, 501Mel XP, 10μΜ ([3]; 501Mel XP, 10μΜ, in %): 63.6; cell viability, IGR37 XP, 10μΜ ([4]; IGR37 XP, 10μΜ, 72 h): 36.2%; cell viability, IGR37 XP, 1μΜ ([4]; IGR37 XP, 1μΜ, 72 h, in %): 91.6; cell viability, 501Mel Parental, 1μΜ (501Mel cells (parental); 501Mel Parental, 1μΜ, in %): 97.4; cell viability, 501Mel Parental, 10μΜ (501Mel cells (parental); 501Mel Parental, 10μΜ, in %): 93.8; cell viability, A375 GP, 1μΜ ([5]; A375 GP, 1μΜ, 72 h, in %): 96.6; cell viability, A375 GP, 10μΜ ([5]; A375 GP, 10μΜ, 72 h, in %): 85.7; cell viability, A375 Parental, 1μΜ (A375 cells (parental); A375 Parental, 1μΜ, 72 h, in %): 98.9; cell viability, A375 Parental, 10μΜ (A375 cells (parental); A375 Parental, 10μΜ, 72 h, in %): 86.7; cell viability, A375 XP, 1μΜ ([6]; A375 XP, 1μΜ, 72 h, in %): 105.6; cell viability, A375 XP, 10μΜ ([6]; A375 XP, 10μΜ, 72 h, in %): 90.7
3 | C[C@H](NC(=O)/C(C#N)=C/c1cccc(Br)n1)c1ccccc1 [WP1066] |  |  |  |  |  |  |  |  |  |  |  |  |  |  |  |  |  |  | viability at 1 µM ([1]; Homo sapiens, read-out: cell viability, 501Mel GP, 1μΜ): 102%; viability at 10 µM ([1]; Homo sapiens, read-out: cell viability, 501Mel GP, 10μΜ): 1.2%; viability at 1 µM ([2]; Homo sapiens, IGR-37, 72 h, read-out: cell viability, IGR37 GP, 1μΜ): 92.6%; viability at 10 µM ([2]; Homo sapiens, IGR-37, 72 h, read-out: cell viability, IGR37 GP, 10μΜ): 5.1%; viability at 1 µM (IGR37 cells (parental); Homo sapiens, IGR-37, 72 h, read-out: cell viability, IGR37 Parental, 1μΜ): 110%; viability at 10 µM (IGR37 cells (parental); Homo sapiens, IGR-37, 72 h, read-out: cell viability, IGR37 Parental, 10μΜ): 0.9%; viability at 1 µM ([3]; Homo sapiens, read-out: cell viability, 501Mel XP, 1μΜ): 91.3%; viability at 10 µM ([3]; Homo sapiens, read-out: cell viability, 501Mel XP, 10μΜ): -0.0613%; viability at 1 µM ([4]; Homo sapiens, IGR-37, 72 h, read-out: cell viability, IGR37 XP, 1μΜ): 92.4%; viability at 10 µM ([4]; Homo sapiens, IGR-37, 72 h, read-out: cell viability, IGR37 XP, 10μΜ): 3.2%; viability at 1 µM (501Mel cells (parental); Homo sapiens, read-out: cell viability, 501Mel Parental, 1μΜ): 96.9%; viability at 10 µM (501Mel cells (parental); Homo sapiens, read-out: cell viability, 501Mel Parental, 10μΜ): 0.369%; viability at 1 µM ([5]; Homo sapiens, A-375, 72 h, read-out: cell viability, A375 GP, 1μΜ): 92.5%; viability at 10 µM ([5]; Homo sapiens, A-375, 72 h, read-out: cell viability, A375 GP, 10μΜ): 4.5%; viability at 1 µM (A375 cells (parental); Homo sapiens, A-375, 72 h, read-out: cell viability, A375 Parental, 1μΜ): 106%; viability at 10 µM (A375 cells (parental); Homo sapiens, A-375, 72 h, read-out: cell viability, A375 Parental, 10μΜ): 5.4%; viability at 1 µM ([6]; Homo sapiens, A-375, 72 h, read-out: cell viability, A375 XP, 1μΜ): 103%; viability at 10 µM ([6]; Homo sapiens, A-375, 72 h, read-out: cell viability, A375 XP, 10μΜ): 6.7%
4 | COC(=O)Nc1ccc(-c2nc(N3CCOCC3)c3cnn(C4CCN(C(=O)OC)CC4)c3n2)cc1 [WYE-354] | 76.5 | 16.5 | 31.6% | 85.9 | 82.1 | 28.9 | 63.3 | 8.7 | 10.6% | 82.2 | 85.1 | 21.3 | 80.7 | 21.5 | 24.6 | 84.7 | 76.7 | 19.6 | 
